Measured values taken from patent publication US12559471B2, “1,5-dihydro-2,4-benzodiazepine-3-one derivative and application thereof” (JIANGSU NHWA PHARMACEUTICAL CO., LTD, priority 2020, dated 2026).
Several values for one entry are separate records, joined by “and”; a condition that tells them apart may be missing. Identical values can stand only once.

Tests used:
[1] = system: DOI-induced PPI impairment in rats; assay: DOI-induced PPI impairment test in rats (intervention test); assay type: in vivo; settings: DOI 0.5 mg/kg
Protocol: 3. DOI ((f)-1-(2,5-dimethoxy-4-iodophenyl)-2-aminopropane hydrochloride or (f)-2,5-dimethoxy-4-iodoamphetamine hydrochloride) induced PPI impairment effect test in rats
30 min after the intragastric administration of a drug (or a vehicle) and 30 min after the subcutaneous injection of DOI at 0.5 mg/kg at the neck, namely 60 min after the intragastric administration, the rats were placed into a startle reflex test box for testing.
The test was performed according to literature and preliminary experiments, and the specific process was as follows: first an adaptation period of 5 min was given (62 dB background sound), and 5 separate startle reflex stimuli were given after the adaptation period (blockl, results not included in the analysis to reduce the initial response of the animals to a plateau level), followed by 4 different types of tests (block2) presented in a pseudo-random manner, namely: 1) startle reflex stimulus alone (pulse-alone, 120 dB, lasting 20 ms); 2) prepulse stimulus alone 13 dB above the background sound (prepulse-alone, 75 dB, lasting 20 ms); 3) prepulse stimulus in combination with startle reflex stimulus, each lasting 20 ms, with an interval of 100 ms; and 4) no stimulus in which only the background sound was given (no stimulus). Each trial was performed 5 times, with an average interval of 20 s (10-30 s) between trials.
The response amplitude of the startle reflex stimulus alone or the prepulse stimulus in combination with startle reflex stimulus was expressed as the AVG (instrument-specific unit) value, which indirectly reflects the size of the flinching response of the rat body. Evaluation index: PPI %=(1−response amplitude of prepulse stimulus in combination with startle reflex stimulus/response amplitude of startle reflex stimulus alone)×100. The higher the value is, the greater the degree of the inhibition is.

[2] = target: hERG potassium channel (Homo sapiens (Human), UniProt Q12809); assay: In vitro hERG assay, whole-cell patch clamp in HEK-293 cells; assay type: cell-based; settings: HEK-293 cells stably expressing hERG, room temperature
Protocol: b. […] The working solutions of the test compounds were ultrasonically treated for 20 min.
The cell suspension was gently pipetted to separate the aggregated cells.
Under an inverted microscope, recording electrodes were controlled by a glass electrode micromanipulator (micromanipulation) to contact with the cell. […] After forming the GΩ seal, a rapid capacitance compensation was given.
Negative control and test compounds flowed through the recording chamber in an ascending order of concentration by gravity perfusion to quickly act on the cells. During the recording, the extracellular fluid was continuously circulated by a vacuum pump. […] Each concentration was allowed to act for 5 min or until the current was stabilized. All experiments were performed at room temperature.
[formula] Basic statistics were calculated for each concentration, including mean, standard deviation (SD), standard error (SE), and replicates (n). The dose-dependent curve was fitted with the following equation and the half maximal inhibitory concentration (IC50) of the test compounds was calculated:
Curve fitting and calculation of IC50 were performed by GraphPad Prism 5.0 software. 5. Experimental Results

[3] = target: 5-HT2C receptor (Rattus norvegicus (Rat), UniProt P08909); settings: read-out: 5-HT2C (Ki value); rat cortex membrane, 3H-Mesulergine
5-HT2C receptor, sequence (P08909 33-460): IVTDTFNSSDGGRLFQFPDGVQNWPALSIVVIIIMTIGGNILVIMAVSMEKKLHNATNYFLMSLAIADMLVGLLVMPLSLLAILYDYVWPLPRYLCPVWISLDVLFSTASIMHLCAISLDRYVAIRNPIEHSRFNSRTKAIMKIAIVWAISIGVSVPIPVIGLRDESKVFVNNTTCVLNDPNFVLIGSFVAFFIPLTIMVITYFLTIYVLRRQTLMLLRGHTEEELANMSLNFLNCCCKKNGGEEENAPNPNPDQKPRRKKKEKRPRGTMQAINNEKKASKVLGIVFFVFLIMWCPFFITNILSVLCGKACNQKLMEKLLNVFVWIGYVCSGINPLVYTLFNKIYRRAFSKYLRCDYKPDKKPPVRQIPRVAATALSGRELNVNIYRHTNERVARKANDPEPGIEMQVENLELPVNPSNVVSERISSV
Protocol: 2) Preparation of 5-HT2C Membrane
The rat cortex was taken out of a refrigerator at −80° C. and thawed spontaneously. The solution A was added, and the mixture was homogenized for 3-4 s at 4th gear for a total of 4 times and centrifuged at 50000 g for 25 min at 4° C. The supernatant was discarded, and the solution A was added into the precipitate. The mixture was mixed well using a vortex mixer and centrifuged at 50000 g for 25 min at 4° C. (repeated twice). The supernatant was discarded after the centrifugation, and the precipitate was stored at −80° C. for later use.
2) Competitive 5-HT2C Receptor Binding Assay
Step 1: the prepared membrane was suspended in the homogenate B to obtain a 210 mg/mL membrane suspension for later use.
Step 2: 100 μL of the membrane suspension was added into each reaction tube.
Step 3: 100 μL of the solution B was added into a total binding tube (TB), 100 μL of Ketanserin (final concentration: 1.0×10^−5 M) was added into a non-specific binding tube (NB), and 100 μL of test compound was added into each compound binding tube (CB).
Step 4: 10 μL of radioligand ^3H-Mesulergine was added into each reaction tube to reach a final concentration of 3 nM.
Step 5: each reaction tube was incubated at 37° C. for 25 min. After the reaction was completed, the binding ligands were rapidly filtered under reduced pressure, wherein the Whatman test paper GF/C was washed with 0.5% PEI solution 1 h in advance. The filter membrane was fully washed with cold Tris buffer solution, taken out and put into a 4 mL scintillation disc, which was then added with 1 mL toluene scintillation solution and shaken for mixing well.
Step 6: the scintillation disc was put into a liquid scintillation counter for counting.

hERG potassium channel, sequence (Q12809 whole entry): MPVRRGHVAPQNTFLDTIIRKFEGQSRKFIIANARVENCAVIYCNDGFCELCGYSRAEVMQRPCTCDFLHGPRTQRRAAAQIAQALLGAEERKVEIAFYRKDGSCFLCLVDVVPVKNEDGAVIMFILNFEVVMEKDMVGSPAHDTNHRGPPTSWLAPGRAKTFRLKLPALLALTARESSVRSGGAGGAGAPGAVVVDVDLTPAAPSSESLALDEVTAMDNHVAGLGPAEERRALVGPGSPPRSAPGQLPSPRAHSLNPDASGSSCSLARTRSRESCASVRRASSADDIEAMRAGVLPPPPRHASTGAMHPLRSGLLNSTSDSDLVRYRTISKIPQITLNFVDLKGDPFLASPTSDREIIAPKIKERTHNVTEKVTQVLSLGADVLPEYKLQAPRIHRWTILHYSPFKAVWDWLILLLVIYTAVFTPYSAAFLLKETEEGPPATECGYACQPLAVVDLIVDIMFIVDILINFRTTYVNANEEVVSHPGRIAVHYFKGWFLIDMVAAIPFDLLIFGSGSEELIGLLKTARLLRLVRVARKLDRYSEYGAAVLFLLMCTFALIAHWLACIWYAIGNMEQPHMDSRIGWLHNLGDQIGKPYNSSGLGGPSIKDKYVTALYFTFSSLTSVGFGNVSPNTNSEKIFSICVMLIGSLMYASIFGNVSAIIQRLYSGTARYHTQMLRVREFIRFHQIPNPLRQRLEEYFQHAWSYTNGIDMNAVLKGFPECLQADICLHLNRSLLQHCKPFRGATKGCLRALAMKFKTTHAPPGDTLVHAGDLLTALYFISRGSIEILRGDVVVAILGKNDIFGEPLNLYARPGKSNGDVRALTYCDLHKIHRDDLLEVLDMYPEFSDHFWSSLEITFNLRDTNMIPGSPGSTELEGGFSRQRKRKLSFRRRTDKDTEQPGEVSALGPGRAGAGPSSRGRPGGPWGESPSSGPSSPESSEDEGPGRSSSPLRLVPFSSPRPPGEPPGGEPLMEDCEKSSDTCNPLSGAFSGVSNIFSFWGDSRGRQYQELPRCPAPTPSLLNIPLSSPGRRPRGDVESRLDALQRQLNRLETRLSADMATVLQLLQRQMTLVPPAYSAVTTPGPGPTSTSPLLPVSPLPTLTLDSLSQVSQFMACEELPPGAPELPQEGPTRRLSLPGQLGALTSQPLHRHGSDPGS

Compound: CC(C)COc1ccc(CN2Cc3ccc(F)cc3CN(C3CCN(C)CC3)C2=O)cc1 [NH-K-A19005, 8-fluoro-2-(1-methylpiperidin-4-yl)-4-[[4-(2-methylpropoxy)phenyl]methyl]-1,5-dihydro-2,4-benzo diazepine-3-one]
- reversal of DOI-induced PPI impairment ([1]; 3 mg/kg, P<0.05): significantly reverse
- PPI %, MEAN ([1]; 1 mg/kg intragastric): 40.15%
- PPI %, individual animal ([1]; 1 mg/kg intragastric): 55.27% and 13.13% and 49.29% and 40.22% and 11.24% and 71.74%
- PPI %, MEAN ([1]; 3 mg/kg intragastric): 42.95%
- PPI %, individual animal ([1]; 3 mg/kg intragastric): 36.23% and 53.57% and 36.93% and 47.37% and 45.54% and 61.94% and 38.90% and 23.16%
- PPI %, MEAN ([1]; 10 mg/kg intragastric): 52.40%
- PPI %, individual animal ([1]; 10 mg/kg intragastric): 86.67% and 28.57% and 78.84% and 65.78% and 63.08% and 0.38% and 52.03% and 43.86%
- IC50 [2]: 3.17 µM
- Ki [3]: 0.00339 µM
